According to patent US20050113577A1, “Solid forms of slats with tyrosine kinase activity” (priority 2002, published 2005):
One block for each compound: values may come before it.

Tests used:
[1] = target: T1, human KDR (Homo sapiens, UniProt P35968); test: VEGF Receptor Kinase Assay; assay type: biochemical; details: tested by the assays described (KDR, HUVEC, Flt-1, Flt-3); no values given
T1 construct: cloning the cytoplasmic domain of the KDR kinase as an in frame fusion at the carboxy terminus of the GST gene; made in house; host or cells: Spodoptera frugiperda (Sf21) insect cells, baculovirus vector pAcG2T
Method: Other assays are known in the literature and could be readily performed by those of skill in the art (see, for example, Dhanabal et al., Cancer Res. 59:189-197; Xin et al., J. Biol. Chem. 274:9116-9121; Sheu et al., Anticancer Res. 18:4435-4441; Ausprunk et al., Dev. Biol. 38:237-248; Gimbrone et al., J. Natl. Cancer Inst. 52:413-427; Nicosia et al., In Vitro 18:538-549).
VEGF receptor kinase activity is measured by incorporation of radio-labeled phosphate into polyglutarnic acid, tyrosine, 4:1 (pEY) substrate. The phosphorylated pEY product is trapped onto a filter membrane and the incorporation of radio-labeled phosphate quantified by scintillation counting.
The intracellular tyrosine kinase domains of human KDR (Tennan, B. I. et al. Oncogene (1991) vol. 6, pp. 1677-1683.) and Flt-1 (Shibuya, M. et al. Oncogene (1990) vol. 5, pp. 519-524) were cloned as glutathione S-transferase (GST) gene fusion proteins. This was accomplished by cloning the cytoplasmic domain of the KDR kinase as an in frame fusion at the carboxy terminus of the GST gene. Soluble recombinant GST-kinase domain fusion proteins were expressed in Spodoptera frugiperda (Sf21) insect cells (Invitrogen) using a baculovirus expression vector (pAcG2T, Pharmingen). […]

[2] = Solid form stability in suspension/slurry (XRPD); assay type: physicochemical
Method: An X-ray powder diffraction pattern of Form A is indicative of a crystalline material with multiple diffraction peaks between 5° and 30° 2-theta.

[3] = Solubility in water and organic solvents at room temperature (suspended for 7 days); assay type: physicochemical
Method: [table] The solubility of Form A HCl Salt at room temperature was determined in water and several organic solvents that can be used in pharmaceutical processing.

[4] = Solubility in various aqueous solvent systems measured for 20 hours; assay type: physicochemical
Method: [table] The solubility of Form A in various aqueous solvent systems was measured for a period of 20 hours.

[5] = Hygroscopicity, step isotherm program 0 to 95% RH; assay type: physicochemical; details: 25° C.
Method: The hygroscopicity of Form A was determined at 25° C. using a step isotherm program for relative humidities from 0 to 95% RH under nitrogen flow.

[6] = Partition coefficient between 1-octanol and water; assay type: physicochemical; details: 1-octanol/water; pH (equilibrium) 3.8 (native); 0.033 mg/mL in aqueous phase at start
Method: Partition coefficient of Form A between I-octanol and water were determined at the native pH of the HCl Salt (Table III).

T1 sequence (P35968 786-1356 limits assumed): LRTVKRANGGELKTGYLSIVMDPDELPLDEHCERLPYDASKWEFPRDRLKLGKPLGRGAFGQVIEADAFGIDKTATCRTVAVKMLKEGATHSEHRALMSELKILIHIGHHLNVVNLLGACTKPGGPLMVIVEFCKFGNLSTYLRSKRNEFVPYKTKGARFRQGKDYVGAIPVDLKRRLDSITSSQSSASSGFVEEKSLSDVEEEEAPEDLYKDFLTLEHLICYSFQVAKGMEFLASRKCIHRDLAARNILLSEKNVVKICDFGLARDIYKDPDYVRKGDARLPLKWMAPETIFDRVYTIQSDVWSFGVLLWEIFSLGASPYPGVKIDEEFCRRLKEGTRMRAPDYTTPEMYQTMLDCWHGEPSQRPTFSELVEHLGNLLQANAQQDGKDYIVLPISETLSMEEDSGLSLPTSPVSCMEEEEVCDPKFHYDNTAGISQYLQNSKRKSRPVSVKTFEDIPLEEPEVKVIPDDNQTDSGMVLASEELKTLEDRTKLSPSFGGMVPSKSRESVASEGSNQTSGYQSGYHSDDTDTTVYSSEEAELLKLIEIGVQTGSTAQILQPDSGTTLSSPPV

kinase inhibitory activity [1]: inhibits the kinase KDR
SMILES: CS(=O)(=O)N1CCN(Cc2ccc3[nH]c(-c4cc5ccccc5[nH]c4=O)cc3c2)CC1 [Compound 1-11, 3-[5-(4-Methanesulfonyl-piperazin-1-ylmethyl)-1H-indol-2-yl]-1H-quinolin-2-one]

Change in crystal structure (XRPD) ([2]; suspended in aqueous ethanol for seven days at RT): No change in crystal structure | Solubility ([3]; Aqueous ETOH (50%)): 4.34 mg/mL | Solubility ([3]; Aqueous IPA (50%)): 3.99 mg/mL | Solubility ([3]; Ethanol): 0.13 mg/mL | Solubility ([3]; Isopropanol): 0.057 mg/mL | Solubility ([3]; Water): 0.26 mg/mL | Solubility ([4]; 10% EtOH): 0.38 mg/mL | Solubility ([4]; 10% IPA): 0.47 mg/mL | Solubility ([4]; 25% EtOH): 1.06 mg/mL | Solubility ([4]; 25% IPA): 1.78 mg/mL | Solubility ([4]; 50% Acetone): 10.66 mg/mL | Solubility ([4]; 50% EtOH): 3.82 mg/mL | Solubility ([4]; 50% IPA): 4.39 mg/mL | Solubility ([4]; 75% EtOH): 3.86 mg/mL | Solubility ([4]; 75% IPA): 2.29 mg/mL | Solubility ([4]; Acetone): 0.061 mg/mL | Hygroscopicity ([5]; 0 to 95% RH under nitrogen flow): not hygroscopic | Moisture reversibly adsorbed ([5]; 75% RH): approximately 1% | log P (log Ko/w) [6]: −4.34
SMILES: CS(=O)(=O)N1CCN(Cc2ccc3[nH]c(-c4cc5ccccc5[nH]c4=O)cc3c2)CC1.Cl [Form A, hydrochloride salt of 3-[5-(4-methanesulfonyl-piperazin-1-ylmethyl)-1H-indol-2-yl]-1H-quinolin-2-one]

Solid form after slurry ([2]; slurry in water at room temperature for seven days): provided Form D crystalline solid
SMILES: CS(=O)(=O)N1CCN(Cc2ccc3[nH]c(-c4cc5ccccc5[nH]c4=O)cc3c2)CC1.Cl [Form E, hydrochloride salt of 3-[5-(4-methanesulfonyl-piperazin-1-ylmethyl)-1H-indol-2-yl]-1H-quinolin-2-one]
